In patent US20260083704A1, “LXR MODULATORS WITH BICYCLIC CORE MOIETY FOR TREATING DYSLIPIDEMIAS” (OrsoBio, Inc., priority 2022, published 2026):

Tests used:
[1] = test system: LXR target genes (Scd1, Fas, Srebp1) in liver; test: Short term HFD mouse model: gene expression in liver tissue; assay type: in vivo; details: HFD mice, expression normalized to Tbp
Method: (§1) The in vivo transcriptional regulation of several LXR target genes by LXR modulators was assessed in mice.
(§2) For this, C57BL/6J were purchased from Elevage Janvier (Rennes, France) at the age of 8 weeks. After an acclimation period of two weeks, animals were prefed on a high fat diet (HFD) (Ssniff Spezialdiäten GmbH, Germany, Surwit EF D12330 mod, Cat. No. E15771-34), with 60 kcal % from fat plus 1% (w/w) extra cholesterol (Sigma-Aldrich, St. Louis, MO) for 5 days. Animals were maintained on this diet during treatment with LXR modulators. The test compounds were formulated in 0.5% hydroxypropylmethylcellulose (HPMC) and administered in three doses (from 1.5 to 20 mg/kg each) by oral gavage according to the following schedule: on day one, animals received treatment in the morning and the evening (ca. 17:00), on day two animals received the final treatment in the morning after a 4 h fast and were sacrificed 4 h thereafter. Animal work was conducted according to the national guidelines for animal care in Germany.
Analysis of gene expression in liver tissue. To obtain total RNA from frozen liver tissue, samples (25 mg liver tissue) were first homogenized with RLA buffer (4M guanidin thiocyanate, 10 mM Tris, 0.97% w:v β-mercapto-ethanol). RNA was prepared using a SV 96 total RNA Isolation system (Promega, Madison, Wisconsin, USA) following the manufacturer's instructions. cDNAs were synthesized from 0.8-1 μg of total RNA using All-in-One cDNA Supermix reverse transcriptase (Absource Diagnostics, Munich, Germany). Quantitative PCR was performed and analyzed using Prime time Gene expression master mix (Integrated DNA Technologies, Coralville, Iowa, USA) and a 384-format ABI 7900HT Sequence Detection System (Applied Biosystems, Foster City, USA). The expression of the following genes was analysed: Stearoyl-CoA desaturase1 (Scd1), fatty acid synthase (Fas) and sterol regulatory element-binding protein1 (Srebp1). Specific primer and probe sequences (commercially available) are listed in Table 3. qPCR was conducted at 95° C. for 3 min, followed by 40 cycles of 95° C. for 15 s and 60° C. for 30 s. All samples were run in duplicates from the same RT-reaction. Gene expression was expressed in arbitrary units and normalized relative to the mRNA of the housekeeping gene TATA box binding protein (Tbp) using the comparative Ct method.

[2] = Short term HFD mouse model: plasma and liver exposure; assay type: in vivo; details: HFD mice, 4 h after final dose
Method: as §1, §2
Upon termination, liver was collected, dipped in ice cold PBS for 30 seconds and cut into appropriate pieces. Pieces were snap frozen in liquid nitrogen and stored at −80° C. For the clinical chemistry analysis from plasma, alanine aminotransferase (ALT, IU/mL), cholesterol (CHOL, mg/dL) and triglycerides (TG, mg/dL) were determined using a fully-automated bench top analyzer (Respons®910, DiaSys Greiner GmbH, Flacht, Germany) with system kits provided by the manufacturer.

[3] = target: T1, GST-LXRβ ligand-binding domain (Homo sapiens, UniProt P55055); test: TR-FRETβ activity assay (NCoA3 coactivator peptide recruitment); assay type: biochemical; details: 1 μM 24(S)-25-epoxycholesterol prestimulation
T1 construct: amino acids 156-461; NP009052; made in house; host or cells: E. coli
T1 sequence (P55055 156-460 limits assumed): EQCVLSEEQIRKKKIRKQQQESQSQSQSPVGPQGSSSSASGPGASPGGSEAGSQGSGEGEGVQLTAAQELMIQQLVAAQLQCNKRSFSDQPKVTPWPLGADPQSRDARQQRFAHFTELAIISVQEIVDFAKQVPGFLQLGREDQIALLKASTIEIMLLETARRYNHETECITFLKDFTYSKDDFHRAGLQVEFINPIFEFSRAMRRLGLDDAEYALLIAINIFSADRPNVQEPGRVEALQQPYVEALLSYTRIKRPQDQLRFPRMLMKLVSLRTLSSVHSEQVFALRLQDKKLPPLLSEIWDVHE
Method in brief: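 E. coli-expressed GST-LXRβ LBD (aa 156-461, 76 nM) with biotinylated NCoA3 peptide (400 nM) in Tris/HCl pH 6.8 containing 1 μM 24(S)-25-epoxycholesterol agonist. Compounds tested at 50 μM down to 0.002 μM in triplicate. TR-FRET (Tb cryptate/XL665, ex 340, em 615/665 nm) read after 1 h at 4° C.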

[4] = Mus musculus, 4 h, three oral doses of 20 mg/kg, read-out: Scd1 suppresion compared to vehicle
[5] = three oral doses of 20 mg/kg over two days
[6] = three oral doses of 10 mg/kg over two days

SMILES	Fasn suppression compared to vehicle ([1]; three oral doses of 20 mg/kg)	response vs control in vivo at 20 mg/kg [1, 4] [%]	liver exposure 4 h [2, 5]	liver/plasma ratio 4 h [2, 5]	plasma exposure 4 h [2, 5]	EC50 [3] [nM]	Srebp1c suppr. compared to vehicle ([1]; three oral doses of 20 mg/kg)	Fasn suppression compared to vehicle ([1]; three oral doses of 10 mg/kg)	Srebp1c suppr. compared to vehicle ([1]; three oral doses of 10 mg/kg)	response vs control in vivo at 10 mg/kg ([1]; Mus musculus, 4 h, three oral doses of 10 mg/kg, read-out: Scd1 suppresion compared to vehicle) [%]	liver exposure 4 h [2, 6]	liver/plasma ratio 4 h [2, 6]	plasma exposure 4 h [2, 6]
N#Cc1nccnc1-c1c(-c2cccc(-c3cc(F)c(C(=O)O)cc3Cl)c2)n(S(=O)(=O)c2ccc(C(F)F)cc2)c2ccc(F)cc12 [11/11]	C (0.3 to ≤0.6)	< 30	D (>10 μM)	D (>100)	D (<100 nM)	< 100	–	–	–	–	–	–	–
N#Cc1cccc(C#N)c1-c1c(-c2cccc(-c3ccc(C(=O)O)cc3Cl)c2)n(S(=O)(=O)c2ccc(C(F)F)cc2)c2ccc(F)cc12 [11/12]	C (0.3 to ≤0.6)	< 30	C (1 μM to ≤10 μM)	C (30 to ≤100)	D (<100 nM)	< 100	–	–	–	–	–	–	–
O=C(O)c1ccc(-c2cccc(-c3c(-c4c(Cl)cccc4Cl)c4cc(F)ccc4n3S(=O)(=O)c3ccc(C(F)F)cc3)c2)c(Cl)c1 [11/13]	C (0.3 to ≤0.6)	< 30	C (1 μM to ≤10 μM)	A (<5)	A (>1 μM)	< 100	–	–	–	–	–	–	–
N#Cc1sccc1-c1c(-c2cccc(-c3ccc(C(=O)O)cc3Cl)c2)n(S(=O)(=O)c2ccc(C(F)(F)F)nc2)c2ccc(F)cc12 [11/16]	A (>0.9)	30 to 60	C (1 μM to ≤10 μM)	B (5 to ≤30)	C (100 nM to <300 nM)	100 to 1000	B (0.6 to ≤0.9)	–	–	–	–	–	–
N#Cc1sccc1-c1c(-c2cccc(-c3ccc(C(=O)O)cc3Cl)c2)n(S(=O)(=O)c2ccc(C(F)F)cc2)c2ccc(F)cc12 [11/17]	C (0.3 to ≤0.6)	< 30	D (>10 μM)	C (30 to ≤100)	C (100 nM to <300 nM)	< 100	–	–	–	–	–	–	–
O=C(O)c1ccc(-c2cccc(-c3c(-c4ncccc4C(F)(F)F)c4cc(F)ccc4n3S(=O)(=O)c3ccc(C(F)F)cc3)c2)c(Cl)c1 [11/23]	C (0.3 to ≤0.6)	< 30	C (1 μM to ≤10 μM)	B (5 to ≤30)	C (100 nM to <300 nM)	< 100	–	–	–	–	–	–	–
N#Cc1cccnc1-c1c(-c2cccc(-c3ccc(C(=O)O)cc3Cl)c2)n(S(=O)(=O)c2ccc(C(F)F)cc2)c2ccc(F)cc12 [11/26]	–	–	–	–	–	< 100	–	D (<0.3)	D (<0.3)	30 to 60	C (1 μM to ≤10 μM)	C (30 to ≤100)	C (100 nM to <300 nM)
COc1c(C(=O)O)ccc(-c2cccc(-c3c(-c4ccccc4C#N)c4cc(F)ccc4n3S(=O)(=O)c3ccc(C(F)F)cc3)c2)c1Cl [11/27]	C (0.3 to ≤0.6)	< 30	C (1 μM to ≤10 μM)	C (30 to ≤100)	D (<100 nM)	< 100	A (>0.9)	–	–	–	–	–	–
N#Cc1ccccc1-c1c(-c2cccc(-c3ccc(C(=O)O)cc3Cl)c2)n(S(=O)(=O)c2ccc(C(F)F)cc2)c2ccc(F)cc12 [11/33]	B (0.6 to ≤0.9)	< 30	C (1 μM to ≤10 μM)	C (30 to ≤100)	C (100 nM to <300 nM)	< 100	–	–	–	–	–	–	–
